The source of these data is patent US20160185774A1, “Anti-Infective Compounds” (priority 2013, published 2016).

≈ marks a conversion by molar mass, not a printed value.

For the experiment, the system named is M. tuberculosis. Nature of the experiment: microbe, parasite or virus in culture. Type of experiment: cell-based. As to conditions: Mycobacterium tuberculosis, 120 h; read-out: QUM (MIC80).

On to `CCc1nc2ccc(Cl)cn2c1C(=O)NCc1ccc(NC2C3CC4CC(C3)CC2C4)cc1` (stereo not shown) [Compound 323], for which the MIC80 is < 1 µM.

With `CCc1nc2ccc(F)cn2c1C(=O)NCc1ccc(N2CCC(c3ccc(C)cc3)CC2)cc1` [Compound 115], the MIC80 is < 1 µM.

Turning to `CCc1nc2cc(Br)ccn2c1C(=O)NCc1ccc(N2CCC(c3ccc(F)cc3)CC2)cc1` [Compound 133], the MIC80 is < 1 µM.

`CCc1nc2ccc(C(F)(F)F)cn2c1C(=O)NCc1ccc(N2CCN(c3ccc(C)cc3)CC2)cc1` [Compound 102]: the MIC80 was < 1 µM.

As for `CCc1nc2ccc(Br)cn2c1C(=O)NCc1ccc(N2CCN(c3ccc(C(F)(F)F)cc3)CC2)cc1` [Compound 156], the MIC80 was < 1 µM.

Take `CCc1nc2c(Br)cccn2c1C(=O)NCc1ccc(N2CCC(c3ccc(Cl)cc3)CC2)cc1` [Compound 213]: the MIC80 was < 1 µM.

For the compound `CCc1nc2cc(Cl)ccn2c1C(=O)NCc1ccc2oc(C)nc2c1` [Compound 339], the MIC80 is 1 to 20 µM (≈ 0.369 to 7.38 µg/mL).

Turning to `Cc1ccc(C2CCN(c3ccc(CNC(=O)c4c(C)nc5ccc(Cl)cn45)cc3)CC2)cc1` [Compound 326], the MIC80 is < 1 µM.

`CCc1nc2cc(OC)ccn2c1C(=O)NCc1ccc(N2CCC(c3ccc(OC(F)(F)F)cc3)CC2)cc1` [Compound 184]: the MIC80 is < 1 µM.

Take `CCc1nc2ccc(Cl)cn2c1C(=O)NCc1csc(-c2ccc(OC(F)(F)F)cc2)n1` [Compound 280]: the MIC80 is < 1 µM.

In the case of `CCc1nc2ccc(Cl)cn2c1C(=O)NCc1ccc(N2CCC(NC(=O)Cc3ccc(F)cc3)CC2)cc1` [Compound 232], the MIC80 was > 20 µM.

As for `CCc1nc2cc(F)ccn2c1C(=O)NCc1ccc(N2CCC(c3ccc(F)cc3)CC2)cc1` [Compound 137], the MIC80 was < 1 µM.

On to `CCc1nc2ccc(Br)cn2c1C(=O)NCc1ccc(N2CCC(c3ccc(F)cc3)CC2)cc1` [Compound 72], for which the MIC80 is < 1 µM.

As to `CCc1nc2ccccn2c1C(=O)NCc1ccc(N2CCC(c3ccc(OC)cc3)CC2)cc1` [Compound 180], the MIC80 was < 1 µM.

On to `CCc1nc2ccc(Cl)cn2c1C(=O)NCc1ccc(NC23CC4CC(CC(C4)C2)C3)cc1` [Compound 321], for which the MIC80 was < 1 µM.

As to `CCc1nc2c(Br)cccn2c1C(=O)NCc1ccc(N2CCC(c3ccc(C)cc3)CC2)cc1` [Compound 34], the MIC80 lay within 1 to 20 µM (≈ 0.531 to 10.6 µg/mL).

In the case of `CCc1nc2c(C(F)(F)F)cccn2c1C(=O)NCc1ccc(N2CCN(c3ccc(Cl)cc3)CC2)cc1` [Compound 209], the MIC80 was in the range of 1 to 20 µM (≈ 0.542 to 10.8 µg/mL).

Turning to `CCc1nc2c(Cl)cccn2c1C(=O)NCc1ccc(N2CCN(c3ccc(F)cc3)CC2)cc1` [Compound 85], the MIC80 was < 1 µM.

Take `CCc1nc2cc(C(F)(F)F)ccn2c1C(=O)NCc1ccc(N2CCC(c3ccccc3)CC2)cc1` [Compound 3]: the MIC80 is < 1 µM.

`CCc1nc2ccc(Cl)cn2c1C(=O)NCc1nc2ccc(Cl)cc2[nH]1` [Compound 260]: the MIC80 was > 20 µM.

Consider `CCc1nc2c(OC)cccn2c1C(=O)NCc1ccc(N2CCC(c3ccc(C(F)(F)F)cc3)CC2)cc1` [Compound 125], for which the MIC80 is 1 to 20 µM (≈ 0.537 to 10.7 µg/mL).

`CCc1nc2ccc(Cl)cn2c1C(=O)NCc1ccc(N2CCOCC2)c(F)c1` [Compound 307]: the MIC80 was < 1 µM.

For `CCc1nc2c(C)cccn2c1C(=O)NCc1ccc(N2CCC(c3ccc(OC(F)(F)F)cc3)CC2)cc1` [Compound 181], the MIC80 was < 1 µM.

Turning to `Cc1nc2cc(F)ccn2c1C(=O)NCc1ccc(N2CCC(c3ccc(C(F)(F)F)cc3)CC2)cc1` [Compound 349], the MIC80 was < 1 µM.

Regarding `CCc1nc2c(C(F)(F)F)cccn2c1C(=O)NCc1ccc(N2CCN(c3ccccc3)CC2)cc1` [Compound 84], the MIC80 fell in the range of 1 to 20 µM (≈ 0.508 to 10.2 µg/mL).

Regarding `Cc1nc2cc(Cl)ccn2c1C(=O)NCc1ccc(N2CCC(c3ccc(F)cc3)CC2)cc1` [Compound 297], the MIC80 was < 1 µM.

Take `CCc1nc2c(Cl)cccn2c1C(=O)NCc1ccc(N2CCN(c3ccc(C(F)(F)F)cc3)CC2)cc1` [Compound 49]: the MIC80 is < 1 µM.

Consider `CCc1nc2cc(Cl)ccn2c1C(=O)NCc1ccc(NC23CC4CC(CC(C4)C2)C3)cc1` [Compound 322], for which the MIC80 is < 1 µM.
